From publication PMC11148772, “Inhibition of protein translational machinery in triple-negative breast cancer as a promising therapeutic strategy” (Cell Reports Medicine, 2024)

Legend:
[1] = tested on: MDA-MB-231, MDA-MB-468 and MCF12A cells; test: Global proteome profiling with pathway enrichment; assay type: cell-based, human; conditions: 1 μM, 12 h, TNBC cells vs vehicle
Procedure: MDA-MB-231, MDA-MB-468, and MCF12A cells were grown to 80% confluence and then treated with DMSO (vehicle control) or SU056 (1 μM) for 12 h. Cells were washed twice with phosphate-buffered saline (PBS), harvested by scaping, and centrifuged. Cells were lysed by vortexing in 100 mM triethylammonium bicarbonate (TEAB, Thermo Fisher Scientific) in 1% sodium dodecyl sulfate (SDS). The lysate was centrifuged, and the supernatant was retained. A bicinchoninic acid assay (BCA, Thermo Scientific, Rockville, IL) was used to measure protein concentration and 50 μg of protein per sample was subjected to disulfide bond reduction using 10 mM TCEP (Sigma Aldrich) for 1 h at 55°C. Cysteine resides were then alkylated with iodoacetamide (Sigma Aldrich) for 30 min at room temperature in the dark. […] All samples were analyzed in triplicate.
Using a Dionex Ultimate Rapid Separation Liquid Chromatography system (Thermo Fisher Scientific), a 3 μL injection of the combined TMT-labeled peptide solution was loaded onto a PepMap 100 C18 trap column (Thermo Fisher Scientific) at a rate of 5 μL/min for 10 min. […] The flow rate was set to 0.6 μL/min throughout the gradient and each sample was analyzed in triplicate. […]
Raw LC-MS/MS data was analyzed using MaxQuant[50] searching against the Swiss-Prot human reference proteome database (20,626 entries as of 2020). […]

MA2821-PDX-TNBC = test: Patient-derived xenograft; assay type: in vivo, mouse; conditions: 50 mg/kg orally, NSG mice
From the text: (§1) Different patient-derived xenograft (PDX) of TNBC were used in this study. The Institutional Animal Care & Use Program of Oregon Health and Science University approved the protocol (#IP00003247). SUTI151-PDX-TNBC was kindly provided by Stefanie S. Jeffrey, MD, Stanford University, CA, USA.[48] CA1616-PDX-TNBC, CA1262-PDX-TNBC, and MA2821-PDX-TNBC were procured from the NCI Patient-Derived Models Repository (PDMR). Information of the PDX samples from NCI can be accessed at https://pdmr.cancer.gov/models/pdx.htm. 6–8 weeks old NSG (female) mice were anesthetized with isoflurane and tumor cells were xenografted into 5th mammary fat pad. Post-xenograft, once tumors reached a size of 50–100 mm^3, SU056 treatment (50 mg/kg body weight administered by oral gavage, 5 days per week) was started. At the end of treatment, mice were euthanized under deep anesthesia and tumors were surgically removed, measured, and weighed.

SUTI151-PDX-TNBC = test: Patient-derived xenograft; assay type: in vivo, mouse; conditions: 50 mg/kg orally, NSG mice
From the text: as §1

CA1616-PDX-TNBC = test: Patient-derived xenograft; assay type: in vivo, mouse; conditions: 50 mg/kg orally, NSG mice
From the text: as §1

CA1262-PDX-TNBC = test: Patient-derived xenograft; assay type: in vivo, mouse; conditions: 50 mg/kg orally, NSG mice
From the text: as §1

SMILES: O=C1OCC2=C1C(c1cccc(F)c1)c1cc3c(cc1N2CCO)OCO3 (stereo not drawn) [SU056, 9-(3-fluorophenyl)-5-(2-hydroxyethyl)-6,9-dihydro-[1,3]dioxolo[4,5-g]furo[3,4-b]quinolin-8(5H)-one]
- protein translation processes (proteomic pathway analysis) [1]: modulated
- tumor growth decreased (MA2821-PDX-TNBC): 51.35%
- tumor weight reduced (MA2821-PDX-TNBC): 48.89%
- reduction in tumor weight (SUTI151-PDX-TNBC): 29%
- tumor volume reduced compared to control (SUTI151-PDX-TNBC): 37%
- tumor volume reduced compared to vehicle control (CA1616-PDX-TNBC): 63.1%
- tumor weight decreased (CA1616-PDX-TNBC): 43.6%
- tumor volume reduced compared to vehicle control (CA1262-PDX-TNBC): 49.8%
- tumor weight decreased (CA1262-PDX-TNBC): 34.67%
